{"source": "patent US12612395B2", "about": "“Rocaglate derivatives and uses thereof” (TRUSTEES OF BOSTON UNIVERSITY, priority 2023, dated 2026)", "key": {"[1]": {"biological_target": "eIF4A1:FAM-labeled poly r(AG)8 (Homo sapiens, UniProt P60842)", "sequence (P60842 whole entry, species assumed)": "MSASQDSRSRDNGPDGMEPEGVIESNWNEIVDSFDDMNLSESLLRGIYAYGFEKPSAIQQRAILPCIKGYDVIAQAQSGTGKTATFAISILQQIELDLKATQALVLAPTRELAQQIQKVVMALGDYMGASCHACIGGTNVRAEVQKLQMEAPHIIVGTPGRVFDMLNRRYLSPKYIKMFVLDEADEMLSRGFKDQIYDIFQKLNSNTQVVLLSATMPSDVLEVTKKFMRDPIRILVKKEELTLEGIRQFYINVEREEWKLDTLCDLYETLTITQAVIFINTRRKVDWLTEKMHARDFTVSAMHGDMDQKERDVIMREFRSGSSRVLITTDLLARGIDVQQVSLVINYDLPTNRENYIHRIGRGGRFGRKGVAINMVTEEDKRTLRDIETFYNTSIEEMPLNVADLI", "assay": "Fluorescence polarization (FP) RNA clamping assay, eIF4A1", "type": "binding", "details": "compound 10 μM, 1 mM ATP", "excerpt": "(§1) Given these observations, the inventors next sought to interrogate the effects of compound (−)-20 in secondary assays for both eIF4A and DDX3 engagement. […] While inherent differences between the FP assay conditions (e.g. probe affinity, protein mobility in FP buffer) preclude direct comparison of absolute AmP values across the two different proteins, the inventors noted that relative anti-CSC potencies for these compounds ((−)-7>(−)-5≈(−)-20) were similar to their relative degrees of clamping for DDX3X and eIF4A1. To follow up on these findings, the inventors performed in vitro translation experiments using a bicistronic mRNA reporter construct FF-HCV-Ren, where translation of the firefly luciferase (FF) cistron is cap-dependent, while translation of the Renilla luciferase (HCV-Ren) cistron is driven off an HCV-IRES, rendering translation of this cistron cap-independent.\nFluorescence Polarization (FP) Assays: Recombinant DDX3X or eIF4A1 (1.5 μM) were incubated with 10 nM FAM-labelled RNA probe and test compounds for 10 min in FP buffer (14.4 mM HEPES-KOH (pH 8), 108 mM NaCl, 1 mM MgCl2, 14.4% glycerol, 0.1% DMSO, 2 mM DTT, 1 mM ATP) at room temperature in black, low-volume 384 well plates (Corning 3820). FP readings were performed using a Pherastar FS microplate reader (BMG Labtech). Compounds were tested at a final concentration of 10 μM.^S9 For ADP+Pi conditions, ATP was substituted with 1 mM ADP and 1 mM Na2HPO4. To assess potency of complex formation, proteins were titrated in the presence of 10 nM probe, 50 μM compounds and 1 mM ATP. Experiments were run in three replicates, with each replicate employing the same master mix of protein, probe and buffer split across the four test conditions (DMSO+three test compounds). […] Data was analyzed using GraphPad Prism 8.4.0, with a “[Agonist] vs. normalized response” nonlinear regression model used to determine the EC50 for stimulation of helicase-RNA probe binding in the presence of test compound."}, "[2]": {"biological_target": "DDX3X:FAM-labeled poly r(AG)8 (Homo sapiens, UniProt O00571)", "sequence (O00571 whole entry, species assumed)": "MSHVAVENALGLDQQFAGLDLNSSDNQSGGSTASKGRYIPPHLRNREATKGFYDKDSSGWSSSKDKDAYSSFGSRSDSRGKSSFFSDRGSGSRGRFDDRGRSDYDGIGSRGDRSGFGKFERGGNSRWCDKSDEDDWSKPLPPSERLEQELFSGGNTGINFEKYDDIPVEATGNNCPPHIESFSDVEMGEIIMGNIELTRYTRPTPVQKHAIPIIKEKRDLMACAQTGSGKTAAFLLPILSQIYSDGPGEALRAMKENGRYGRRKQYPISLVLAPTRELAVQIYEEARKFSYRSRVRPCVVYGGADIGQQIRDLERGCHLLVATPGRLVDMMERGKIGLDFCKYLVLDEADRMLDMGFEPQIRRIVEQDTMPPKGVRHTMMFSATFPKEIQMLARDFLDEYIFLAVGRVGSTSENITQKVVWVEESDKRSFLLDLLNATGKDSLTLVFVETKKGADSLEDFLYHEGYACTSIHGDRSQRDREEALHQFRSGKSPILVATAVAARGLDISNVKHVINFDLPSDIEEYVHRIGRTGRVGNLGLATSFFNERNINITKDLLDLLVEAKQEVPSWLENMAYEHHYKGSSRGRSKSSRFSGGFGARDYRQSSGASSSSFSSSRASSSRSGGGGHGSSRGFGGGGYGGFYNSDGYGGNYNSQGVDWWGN", "assay": "Fluorescence polarization (FP) RNA clamping assay, DDX3X", "type": "binding", "details": "1 mM ATP; for stimulation of DDX3X:(AG)8 complex formation in protein titration, in words: 50 μM rocaglate; for stimulation of DDX3X binding to RNA (change in polarization), in words: compound 10 μM", "excerpt": "as §1\nFluorescence Polarization (FP) Assays: Recombinant DDX3X or eIF4A1 (1.5 μM) were incubated with 10 nM FAM-labelled RNA probe and test compounds for 10 min in FP buffer (14.4 mM HEPES-KOH (pH 8), 108 mM NaCl, 1 mM MgCl2, 14.4% glycerol, 0.1% DMSO, 2 mM DTT, 1 mM ATP) at room temperature in black, low-volume 384 well plates (Corning 3820). FP readings were performed using a Pherastar FS microplate reader (BMG Labtech). Compounds were tested at a final concentration of 10 μM.^S9 For ADP+Pi conditions, ATP was substituted with 1 mM ADP and 1 mM Na2HPO4. To assess potency of complex formation, proteins were titrated in the presence of 10 nM probe, 50 μM compounds and 1 mM ATP. Experiments were run in three replicates, with each replicate employing the same master mix of protein, probe and buffer split across the four test conditions (DMSO+three test compounds). Within each replicate, data was normalized such that the highest response across the four tested conditions (as raw AmP counts) was used as 100% relative change in polarization, and the lowest response across the four tested conditions was used as 0% relative change in polarization. Data was analyzed using GraphPad Prism 8.4.0, with a “[Agonist] vs. normalized response” nonlinear regression model used to determine the EC50 for stimulation of helicase-RNA probe binding in the presence of test compound."}, "eIF4A paralogs (eIF4A1)": {"tested_on": "eIF4A paralogs (eIF4A1)", "assay": "PISA assay in GBM0308 cell lysates, eIF4A", "type": "binding, human", "details": "GBM0308 lysate, compound 10 μM, AMP-PNP and (AG)8 RNA added", "excerpt": "Derivatization-free target identification using a modified proteome integral solubility alteration (PISA) assay. The inventors next pursued proteome-wide target identification to better understand the target profiles of CSC-selective rocaglates. To enable cross-compound comparisons of target engagement, the inventors opted to use the Proteome Integral Solubility Alteration (PISA) assay,^29 a derivative of the mass spectrometry-based Cellular Thermal Shift Assay (MS-CETSA). In MS-CETSA,^30,31 target engagement is inferred through proteome-wide analysis of compound-induced changes to protein thermal stability; proteins with a shift in their half-maximal thermal denaturation temperature upon compound treatment are flagged as potential targets. The PISA assay obviates the need for MS-CETSA-derived thermal denaturation curves through curve integration by pooling of individual temperature points into a single “integral” sample for each treatment condition, thereby increasing throughput (FIG. 9). In contrast to MS-CETSA (which relies on curve comparisons), PISA determinations are performed by simply comparing soluble protein abundance levels between compound- and DMSO-treated samples. Importantly, protein fold-change measurements in PISA experiments generally scale with the thermal shift derived from CETSA experiments, and the magnitude of a thermal shift can inform on relative affinity between compounds and individual targets.^30,32-25 Maximal stability changes are protein-specific,^36 however, precluding estimations of preference for one target over another. Thus, PISA allows for simultaneous target profiling and comparisons of binding affinity between different compounds within a given target.\nOf note, we also detected stabilization of DDX3Y, a paralog which shares >90% sequence similarity with DDX3X.\nPISA assay in GBM0308 cell lysates: The PISA assay was performed in lysates as described by Gaetani and coworkers^S2 with slight modification. Pelleted GBM0308 cells were resuspended in ice-cold lysis buffer (1×PBS pH 7.4, 2 mM MgCl2, 0.5 mM AMP-PNP, 1 μM (AG)8 RNA, HALT protease inhibitor cocktail EDTA-free) and subjected to three freeze-thaw cycles with liquid nitrogen to extract lysate proteins. Thawing was performed at room temperature until ˜80% thawed, then completed on ice. Lysate was clarified by centrifugation for 10 minutes at 20,000 RCF and 4° C., transferred to a fresh Eppendorf tube, then centrifuged again for 10 minutes at 20,000 RCF and 4° C. to ensure removal of debris. Lysate concentration was determined using a Pierce BCA Protein Assay Kit and adjusted to 2.0 mg/mL in lysis buffer. Lysate was mixed 1:1 with a 2× solution of test compound or DMSO in lysis buffer, gently aspirated to ensure proper mixing, and incubated at room temperature for 10 minutes. […]"}}, "note": "Entries after “also recorded” stand apart in the source; their conditions may differ.", "data": [{"smiles": "CONC(=O)[C@H]1[C@@H](O)[C@@]2(O)c3c(OC)cc(OC)cc3O[C@@]2(c2ccc(Br)cc2)[C@@H]1c1ccccc1", "note": "[(−)-7, SDS-1-021]", "values": [{"measurement": "stimulation of eIF4A1 binding to RNA (change in polarization), in words", "setting": "[1]", "value": "strongly stimulated; also recorded: strongest clamping"}, {"measurement": "stimulation of DDX3X:(AG)8 complex formation in protein titration, in words", "setting": "[2]", "value": "clearly favored; also recorded: significant enhancement of binding stimulation"}, {"measurement": "stimulation of DDX3X binding to RNA (change in polarization), in words", "setting": "[2]", "value": "stimulated RNA binding to a greater extent"}, {"measurement": "thermal stabilization of eIF4A paralogs (PISA), in words", "setting": "eIF4A paralogs (eIF4A1)", "value": "stabilized"}]}, {"smiles": "CONC(=O)[C@H]1[C@@H](O)[C@@]2(O)c3c(OC)cc(OC)cc3O[C@@]2(c2ccc(OC)cc2)[C@@H]1c1ccccc1", "note": "[(−)-5, CR-1-31b, reference compound]", "values": [{"measurement": "stimulation of eIF4A1 binding to RNA (change in polarization), in words", "setting": "[1]", "value": "strongly stimulated"}, {"measurement": "stimulation of DDX3X:(AG)8 complex formation in protein titration, in words", "setting": "[2]", "value": "significantly less efficacious"}, {"measurement": "thermal stabilization of eIF4A paralogs (PISA), in words", "setting": "eIF4A paralogs (eIF4A1)", "value": "stabilization"}]}, {"smiles": "COc1cc(OC)c2c(c1)O[C@@]1(c3ccc(Br)cc3)[C@H](c3ccccc3)[C@@H](C(=O)NS(=O)(=O)N(C)C)[C@@H](O)[C@@]21O", "note": "[(−)-20, (1R,2R,3S,3aR,8bS)-3a-(4-bromophenyl)-N—(N,N-dimethylsulfamoyl)-1,8b-dihydroxy-6,8-dimethoxy-3-phenyl-2,3,3a,8b-tetrahydro-1H-cyclopenta[b]benzofuran-2-carboxamide]", "values": [{"measurement": "stimulation of eIF4A1 binding to RNA (change in polarization), in words", "setting": "[1]", "value": "strongly stimulated"}, {"measurement": "stimulation of DDX3X:(AG)8 complex formation in protein titration, in words", "setting": "[2]", "value": "significant enhancement of binding stimulation"}, {"measurement": "stimulation of DDX3X binding to RNA (change in polarization), in words", "setting": "[2]", "value": "stimulated RNA binding to a greater extent"}, {"measurement": "thermal stabilization of eIF4A paralogs (PISA), in words", "setting": "eIF4A paralogs (eIF4A1)", "value": "stabilized"}]}]}
